We go through two molecules from US20060167013A1, “Inhibitors for excessive accumulation of sodium ion in cells” (priority 2002, published 2006).

The experiment relates to ischemic and reperfused hearts. As to the kind of experiment: Ischemia and reperfusion of the isolated rat heart perfused by the Langendorff method: ventricular total sodium content and recovery in contractile tension. The note with it: for Sodium Content: 45 min ischemia, 30 min reperfusion, atomic absorption; for Recovery in Contractile Tension: at 30 min after reperfusion, relative to tension at beginning of experiment; for increase of ventricular sodium content induced by ischemia and reperfusion (result in words): added in the reperfusion solution. As to the method: The heart of the rat was excised and perfused with Krebs buffer solution (in mM: NaCl 119, KCl 4.6, MgSO4.7H2O 1.2, CaCl2·2H2O 1.3, NaHCO3 25, KH2PO4 1.2, glucose 11; pH 7.4, 37° C.) according to the Langendorff method. A thread was attached to the apex of the heart, and then the end was connected to a tension transducer to determine contractile tension. The preparation was stabilized, and then myocardial ischemia was induced by reducing a perfusion pressure (for 45 minutes). After reperfusion for 30 min, the heart was liquefied in nitric acid, and ventricular total sodium content was determined by atomic absorption analysis. Contractile tension was measured during the experiment, and a recovery rate in the contractile tension at 30 min after the reperfusion, relative to the contractile tension at the beginning of the experiment, was used as an index of cardiac contractility.

As to `N=C(N)NC(=O)c1nc(Cl)c(N)nc1N` [Amiloride, reference compound], the “increase of ventricular sodium content induced by ischemia and reperfusion (result in words)” value is “no effect”. For the setting “10^−3 M”, the “Sodium Content” value was found to be 64.8 ± 3.7 µmol/g and the “Recovery in Contractile Tension” value is reported as 59.0 ± 4.7 %. Also, for the setting “10^−4 M”, the “Sodium Content” value is 71.8 ± 3.3 µmol/g and the “Recovery in Contractile Tension” value was determined as 45.4 ± 3.8%. Also, under “10^−5 M”, the “Sodium Content” value is 77.9 ± 3.9 µmol/g and the “Recovery in Contractile Tension” value is given as 33.3 ± 7.2%.

In the case of `Cc1ccc(N2CCNCC2)c(S(=O)(=O)O)c1.O` [MCC-135, 5-methyl-2-(1-piperazinyl)benzenesulfonic acid monohydrate], the “increase of ventricular sodium content induced by ischemia and reperfusion (result in words)” value was “suppressed”. For the same molecule, the “Sodium Content” value (10^−6 M in reperfusion solution) came out at 59.9 ± 2.3 µmol/g. In addition, the “Recovery in Contractile Tension” value (10^−6 M) amounted to 79.4 ± 4.7 %. Besides, the “Sodium Content” value (10^−7 M in reperfusion solution) came to 62.2 ± 0.6 µmol/g. Further, the “Recovery in Contractile Tension” value (10^−7 M) came out at 68.4 ± 3.2 %. For the same molecule, the “Sodium Content” value (10^−8 M in reperfusion solution) was found to be 68.7 ± 3.7 µmol/g. The “Recovery in Contractile Tension” value (10^−8 M) is recorded as 49.1 ± 2.9%. Further, the “Sodium Content” value (10^−9 M in reperfusion solution) worked out at 68.4 ± 6.2 µmol/g. Moreover, the “Recovery in Contractile Tension” value (10^−9 M) was found to be 40.0 ± 4.9%.
